Results on 13 compounds are retold here after patent US8173808B2, “Substituted naphthalenyl-pyrimidine compounds” (ArQule, Inc., priority 2009, dated 2012).

Where a name gives a salt, the structure may show the parent alone.

Series [1] concerns the target full length inactive AKT1 protein (Homo sapiens, UniProt P31749). The experiment in a line: AKT activity; thermal shift binding assay. The settings on record: class symbol for inhibition. The procedure: Aliquots of compounds in DMSO (1 μL @ 375 μM) were placed in the V bottom 96 well PCR plate, and incubated for 30 minutes with 24 μL of AKT1 protein in 25 mM TRIS buffer pH 7.5, 100 mM NaCl, 0.1% 2-mercaptoethanol, pre-mixed with environmentally sensitive fluorescent dye Sypro Orange (12.5×). The plates were centrifuged for […] @ 2000 rpm and 25° C. before the analysis on the IQ5 Real time PCR machine (Biorad). The thermal stability of the protein-ligand complex was monitored by changes in Sypro Orange fluorescence while subjecting the binding mixture to a temperature gradient of 30 to 75° C. at 1° C./min heating rate. Shifts in the protein melting temperature (ΔTm) greater than 0.6° C. compared to the protein alone were indicative of the inhibitor binding. Dissociation constants (Kd's) for the inhibitors were calculated from the melting curves as described in Mei-Chu-Lo et al., Anal.Biochem., 332: 153, 2004.

Another series deals with FGFR2 kinase. The experiment in a line: FGFR2 kinase fluorescent ELISA assay. The note with it: class symbol for inhibition. The series is classed as biochemical. As to the method: A fluorescent ELISA assay was developed to identify and characterize inhibitors of FGFR2 kinase. This heterogeneous assay utilizes a biotinylated peptide with a tyrosine motif as a substrate and an anti-phospho-tyrosine antibody to measure phosphorylation of the substrate. The reaction is initiated by adding test compound, 37 uM Pyk2 substrate (Midwest Biotech, cat. #MBT2383) and 12.5 μM ATP (Roche, cat. #11 140 965 001), and 0.5 μM FGFR2 enzyme (Millipore, cat. #14-742) sequentially to a non-binding polypropylene V-well plate. All reagents are in assay buffer consisting of: 50 mM Tris-HCL, 0.02 mg/mL BSA, 10 mM MgCl2, 0.1 mM Na3VO4, 1 mM EGTA, 75 μM ATP, 0.01% NP-40, 2 mM DTT, 10% Glycerol. The reaction is incubated for 60 minutes. As the reaction proceeds, FGFR2 phosphorylates tyrosines in the peptide. The reaction mixture is then moved to a blocked streptavidin coated Nunc Maxisorb plate (coated with 100 ng streaptavidin from Pierce (cat #15-124) per well) allowing for the capture of the biotinylated peptide. Peptide is captured for 30 minutes at room temperature, the phosphorylation of peptide continues during this phase. The reaction is stopped by washing the Streptavidin plate 6 times with TBST. Phosphorylated peptide is detected by adding anti-phospho tyrosine antibody (purchased from Cell Signaling, cat. #9411, diluted 1:3000), unbound antibody is removed by washing 6 times with TBST. Secondary detection is performed using Alkaline Phosphatase tagged goat anti-mouse antibody (purchased from Pierce, cat. #31320, diluted 1:4000) for one hour. Unbound secondary antibody is removed by washing 6 times with TBST.
The fluorescent readout is initiated by the addition of Promega Attophos substrate (purchased from Promega; Kit catalog number: S1000, dilution=6 mg/10 mL), which when dephosphorylated by Alkaline phosphatase emits a fluorescent signal of […] when excited by a signal […]. This reading is done on the Perkin Elmer Envision system. Compounds which prevent the FGFR2 from phosphorylating the peptide result in a lower fluorescent signal. The signal is directly proportional to the activity of FGFR2 and compound inhibition of FGFR2 is monitored by a decrease in signal.

In another series the target is T1, p70S6K (Homo sapiens, UniProt P23443).
T1 construct: purchased Upstate/Millipore
T1 sequence (P23443 whole entry): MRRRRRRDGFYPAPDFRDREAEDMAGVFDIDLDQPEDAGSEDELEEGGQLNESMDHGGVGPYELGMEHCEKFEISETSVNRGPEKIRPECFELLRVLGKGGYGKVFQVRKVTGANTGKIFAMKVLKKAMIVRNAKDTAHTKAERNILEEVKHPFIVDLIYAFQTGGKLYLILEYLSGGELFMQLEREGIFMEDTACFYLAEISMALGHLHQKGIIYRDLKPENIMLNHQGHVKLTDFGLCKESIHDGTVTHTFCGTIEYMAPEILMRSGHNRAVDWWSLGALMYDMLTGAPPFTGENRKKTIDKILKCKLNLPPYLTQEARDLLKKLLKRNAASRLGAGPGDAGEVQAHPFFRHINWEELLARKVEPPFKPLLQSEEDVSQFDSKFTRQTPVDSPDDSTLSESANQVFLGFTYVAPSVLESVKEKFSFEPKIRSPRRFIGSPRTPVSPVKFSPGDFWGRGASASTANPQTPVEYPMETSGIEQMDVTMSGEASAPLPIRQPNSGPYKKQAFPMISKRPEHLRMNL
In words: p70S6 kinase activity assay (HTRF). It counts as biochemical. The settings on record: class symbol for inhibition. The procedure: p70S6K activity was assayed using Cisbio's homogeneous time-resolved fluorescence (HTRF®) technology. The extent of phosphorylation of the biotinylated peptide substrate STK-S3 is determined using a phospho-specific STK Antibody labeled with Eu^3+-cryptate and streptavidin-XL665 that will bind to the biotin on the peptide. When in close proximity, excitation of the Eu^3+ cryptate donor fluorophore results in fluorescence resonance energy transfer (FRET) to the XL665 acceptor fluorophore and the emission signal from XL665 is measured.
The assay is performed using reagents from the HTRF® KinEASE™-STK kit from Cisbio including enzymatic buffer (50 mM HEPES pH7, 0.02% NaN3, 0.01% BSA, and 0.1 mM Na3VO4), STK-S3 substrate-biotin, Eu^3+-Cryptate labeled STK antibody, Streptavidin-XL665, and detection buffer (50 mM HEPES pH 7, 0.1% BSA, 0.8M KF, and 20 mM EDTA). Test inhibitors and controls (staurosporine) are prepared at 5× the desired final concentration. Test compound (5.0 μL), p70S6 (10 μL) from Upstate/Millipore (final concentration is 2.5 ng/well), and 10 μL substrate/ATP are added to each well of a reaction plate (Corning 96-well half-area solid black nonbinding surface plate). All reaction components are diluted in enzymatic buffer supplemented with 2 mM MgCl2 and 1 mM DTT. The final concentration of STK-S3 substrate is 500 nM and the final concentration of ATP is 100 μM.
On the technique in general: Time-resolved FRET reads energy transfer from a long-lived donor to a nearby acceptor.

Chain of full length inactive AKT1 protein (P31749 whole entry): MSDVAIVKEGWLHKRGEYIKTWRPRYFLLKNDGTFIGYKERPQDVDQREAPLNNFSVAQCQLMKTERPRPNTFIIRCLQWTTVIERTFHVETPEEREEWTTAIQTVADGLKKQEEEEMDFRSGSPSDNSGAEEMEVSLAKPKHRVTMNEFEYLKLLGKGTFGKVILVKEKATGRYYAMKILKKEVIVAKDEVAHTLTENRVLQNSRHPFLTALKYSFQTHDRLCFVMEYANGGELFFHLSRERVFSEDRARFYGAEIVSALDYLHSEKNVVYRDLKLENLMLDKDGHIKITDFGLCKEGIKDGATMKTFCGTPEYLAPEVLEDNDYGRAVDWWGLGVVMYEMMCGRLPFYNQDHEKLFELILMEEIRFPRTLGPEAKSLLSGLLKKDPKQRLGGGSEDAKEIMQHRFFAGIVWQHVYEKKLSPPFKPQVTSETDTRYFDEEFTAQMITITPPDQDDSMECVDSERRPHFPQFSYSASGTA

With “(4-(3-aminophenylamino)-7H-pyrrolo[2,3-d]pyrimidin-5-yl)(phenyl)methanone [Compound 5a]”, the AKT activity result in series [1] was “+ (A positive sign indicates that inhibition is greater or equal to 25%)”. Also, the FGFR2 kinase activity entry with FGFR2 kinase is “− (A negative sign indicates that inhibition is less than 25%)”. For the same compound, the p70S6 kinase activity entry at p70S6K is reported as “+ (A positive sign indicates that inhibition is greater or equal to 25%)”.
Take “N-(3-(5-benzoyl-7H-pyrrolo[2,3-d]pyrimidin-4-ylamino)phenyl)-5-(pyrrolidin-1-yl)pentanamide [Compound 8a]”: the AKT activity entry in series [1] is on record as “+ (A positive sign indicates that inhibition is greater or equal to 25%)”. Moreover, in the series with FGFR2 kinase, the FGFR2 kinase activity entry is reported as “+ (A positive sign indicates that inhibition is greater or equal to 25%)”. On p70S6K, the p70S6 kinase activity result was “− (A negative sign indicates that inhibition is less than 25%)”.
With “N-(3-(5-benzoyl-7H-pyrrolo[2,3-d]pyrimidin-4-ylamino)phenyl)acetamide [Compound 9a]”, the AKT activity result in series [1] was “+ (A positive sign indicates that inhibition is greater or equal to 25%)”. For the same compound, in the series on FGFR2 kinase, the FGFR2 kinase activity entry is reported as “− (A negative sign indicates that inhibition is less than 25%)”. Besides, on p70S6K, the p70S6 kinase activity entry is listed as “− (A negative sign indicates that inhibition is less than 25%)”.
As to “N-(3-(5-benzoyl-7H-pyrrolo[2,3-d]pyrimidin-4-ylamino)phenyl)-2-(dimethylamino)acetamide [Compound 7a]”, the AKT activity entry in series [1] is “− (A negative sign indicates that inhibition is less than 25%)”. Moreover, the FGFR2 kinase activity entry with FGFR2 kinase is recorded as “− (A negative sign indicates that inhibition is less than 25%)”. Moreover, the p70S6 kinase activity result on p70S6K is “+ (A positive sign indicates that inhibition is greater or equal to 25%)”.
For the compound “N-(3-(5-benzoyl-7H-pyrrolo[2,3-d]pyrimidin-4-ylamino)phenyl)-4-(dimethylamino)butanamide [Compound 3a]”, in series [1], the AKT activity entry was “− (A negative sign indicates that inhibition is less than 25%)”. Further, in the series with FGFR2 kinase, the FGFR2 kinase activity result was “− (A negative sign indicates that inhibition is less than 25%)”. Further, the p70S6 kinase activity result at p70S6K is on record as “+ (A positive sign indicates that inhibition is greater or equal to 25%)”.
Take “N^1-(3-(5-benzoyl-7H-pyrrolo[2,3-d]pyrimidin-4-ylamino)phenyl)succinamide [Compound 10a]”: in series [1], the AKT activity entry was “− (A negative sign indicates that inhibition is less than 25%)”. In addition, the FGFR2 kinase activity entry with FGFR2 kinase is given as “+ (A positive sign indicates that inhibition is greater or equal to 25%)”. Moreover, on p70S6K, the p70S6 kinase activity result is on record as “− (A negative sign indicates that inhibition is less than 25%)”.
Regarding “3-acetamido-N-(3-(5-benzoyl-7H-pyrrolo[2,3-d]pyrimidin-4-ylamino)phenyl)propanamide [Compound 4a]”, the AKT activity entry in series [1] is “− (A negative sign indicates that inhibition is less than 25%)”. Also, the FGFR2 kinase activity result in the series on FGFR2 kinase was “− (A negative sign indicates that inhibition is less than 25%)”. On p70S6K, the p70S6 kinase activity result is “+ (A positive sign indicates that inhibition is greater or equal to 25%)”.
Regarding “2-acetamido-N-(3-(5-benzoyl-7H-pyrrolo[2,3-d]pyrimidin-4-ylamino)phenyl)acetamide [Compound 2a]”, in series [1], the AKT activity result is “− (A negative sign indicates that inhibition is less than 25%)”. In addition, the FGFR2 kinase activity entry in the series on FGFR2 kinase is “− (A negative sign indicates that inhibition is less than 25%)”. In addition, the p70S6 kinase activity entry at p70S6K is “+ (A positive sign indicates that inhibition is greater or equal to 25%)”.
With “N-(3-(5-benzoyl-7-methyl-7H-pyrrolo[2,3-d]pyrimidin-4-ylamino)phenyl)acetamide [Compound 6a]”, the AKT activity result in series [1] is “+ (A positive sign indicates that inhibition is greater or equal to 25%)”. Besides, the FGFR2 kinase activity entry with FGFR2 kinase is reported as “− (A negative sign indicates that inhibition is less than 25%)”. Further, on p70S6K, the p70S6 kinase activity result is recorded as “− (A negative sign indicates that inhibition is less than 25%)”.
As usually defined, the melting point is the temperature of the solid-liquid transition. Take `COc1cccc(CNc2nccc(-c3cc(N4CCN(CCCN(C)C5CCCCC5)CC4)c4cc(OC)ccc4c3)n2)c1` (as salt: hydrochloride) [Compound 202, 4-(4-(4-(3-(cyclohexyl(methyl)amino)propyl)piperazin-1-yl)-6-methoxynaphthalen-2-yl)-N-(3-methoxybenzyl)pyrimidin-2-amine]: the melting point lay within 155 to 161 °C.
Still for that read-out and setting: next, `CNc1nccc(-c2cc(NC(=O)c3ccc(C(F)(F)F)cc3)c3cc(OC)ccc3c2)n1` [Compound 187, N-{7-methoxy-3-[2-(methylamino)pyrimidin-4-yl]-1-naphthyl}-4-(trifluoromethyl)benzamide]: 227 to 229 °C; `COCCCNc1nccc(-c2cc(N3CCN(c4ncnc5[nH]nc(Br)c45)CC3)c3cc(OC)ccc3c2)n1` [Compound 177, 4-{4-[4-(3-bromo-1H-pyrazolo[3,4-d]pyrimidin-4-yl)piperazin-1-yl]-6-methoxy-2-naphthyl}-N-(3-methoxypropyl)pyrimidin-2-amine]: 225 to 227 °C.
“N-(3-(3-benzoyl-1H-indol-4-ylamino)phenyl)-3-(pyridin-3-yl)propanamide [Compound 1a]”: in series [1], the AKT activity entry is given as “+ (A positive sign indicates that inhibition is greater or equal to 25%)”. The FGFR2 kinase activity entry with FGFR2 kinase was “− (A negative sign indicates that inhibition is less than 25%)”. Moreover, the p70S6 kinase activity result at p70S6K was “+ (A positive sign indicates that inhibition is greater or equal to 25%)”.
